This is an account of results in patent US11142515B2, “Pyrazolyl-ureas as kinase inhibitors” (RESPIVERT LIMITED, priority 2014, dated 2021).

pIC50: −log10 of the molar value.

Data set [1] concerns the target T1, p38 MAPKα isoform (MAPK14) (Homo sapiens, UniProt Q16539).
T1 construct: purchased Life Technologies
Put plainly: p38 MAPKα enzyme inhibition (Z-LYTE FRET). The data set is classed as biochemical. As to conditions: Table 2B, unit inferred; read-out: p38 MAPKα (Enzyme Profile). The method, boiled down: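 Activity was measured indirectly as phosphorylation of a MAPKAP-K2-derived FRET peptide. Enzyme (added at 40 ng/mL) was preincubated 2 h at RT with compound (added solutions 40–0.0012 μg/mL).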

Data set [2] has as its target T2, p38MAPKγ (MAPK12) (Homo sapiens, UniProt P53778).
T2 construct: purchased Life Technologies
T2 sequence (P53778 1-367): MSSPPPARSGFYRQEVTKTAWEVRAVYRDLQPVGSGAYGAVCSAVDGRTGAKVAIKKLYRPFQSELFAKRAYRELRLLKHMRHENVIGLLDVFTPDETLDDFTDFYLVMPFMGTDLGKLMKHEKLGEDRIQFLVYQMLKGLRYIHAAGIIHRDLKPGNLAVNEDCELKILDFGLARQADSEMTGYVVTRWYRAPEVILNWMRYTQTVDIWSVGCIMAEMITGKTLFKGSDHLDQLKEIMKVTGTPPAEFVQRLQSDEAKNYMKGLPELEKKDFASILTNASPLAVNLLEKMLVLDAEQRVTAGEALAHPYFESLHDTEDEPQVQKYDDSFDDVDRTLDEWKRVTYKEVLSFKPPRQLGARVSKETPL
In words: p38 MAPKγ enzyme inhibition (Z-LYTE FRET). The following applies: Table 2B, unit inferred; read-out: p38 MAPKγ (Enzyme Profile). The data set is classed as biochemical. The method, boiled down: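 Enzyme (added at 800 ng/mL) was preincubated 2 h at RT with compound (solutions of 40 to 0.0012 μg/mL), then FRET peptide (8 μM) and ATP (400 μM), both as added, were reacted 1 h at RT. Protease development followed for 1 h; phosphorylation was read as the coumarin/fluorescein emission ratio.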

Data set [3] relates to alveolar macrophages and neutrophils in BALF. In words: Cigarette smoke model: macrophages and neutrophils in BALF. The data set is classed as in vivo, A/J mice. The following applies: 1.75 μg/mouse (35 μL, bid, i.n.). On the procedure: A/J mice (males, 5 weeks old) were exposed to cigarette smoke (4% cigarette smoke, diluted with air) for 30 min/day for 11 days using a Tobacco Smoke Inhalation Experiment System for small animals (Model SIS-CS; Sibata Scientific Technology, Tokyo, Japan). […] At 12 h after the last […], each of the animals was anesthetized, the trachea cannulated and bronchoalveolar lavage fluid (BALF) was collected. The numbers of alveolar macrophages and neutrophils were determined by FACS analysis (EPICS® ALTRA II, Beckman Coulter, Inc., Fullerton, Calif., USA) using anti-mouse MOMA2 antibody (macrophage) or anti-mouse 7/4 antibody (neutrophil). BALF was centrifuged and the supernatant was collected. The level of keratinocyte chemoattractant (KC; CXCL1) in BALF was quantitated using a Quantikine® mouse KC ELISA kit (R&D systems, Inc., Minneapolis, Minn., USA).

For data set [4], the system named is neutrophil accumulation in BALF. In words: LPS-induced neutrophil accumulation in mice. The data set is classed as in vivo, Balb/c mice. The following applies: 1.75 μg/mouse. On the procedure:
Non-fasted Balb/c mice were […] by the intra tracheal route with either vehicle, or the test substance at the indicated times (within the range 2-8 h) before stimulation of the inflammatory response by application of an LPS challenge. At T=0, mice were placed into an exposure chamber and exposed to LPS (7.0 mL, 0.5 mg/mL solution in PBS for 30 min). After a further 8 h the animals were anesthetized, their tracheas cannulated and BALF extracted by infusing and then withdrawing from their lungs 1.0 mL of PBS via the tracheal catheter. Total and differential white cell counts in the BALF samples were measured using a Neubaur haemocytometer. Cytospin smears of the BALF samples were prepared by centrifugation at 200 rpm for 5 min at RT and stained using a DiffQuik stain system (Dade Behring). Cells were counted using oil immersion microscopy. Data for neutrophil numbers in BAL are shown as mean±S.E.M. (standard error of the mean). The percentage inhibition of neutrophil accumulation was calculated for each treatment relative to vehicle treatment.

Data set [5] relates to sputum macrophages from COPD patients. Put plainly: Cytokine production in LPS-treated sputum macrophages from COPD patients. The data set is classed as cell-based, human. The following applies: Homo sapiens, Macrophage; read-out: E-max (maximum inhibition), IL-6 production in LPS-treated sputum macrophages. The procedure: Patients with COPD inhaled a nebulised solution of 3% (w/v) hypertonic saline using an ultrasonic nebuliser (Devilbiss, Carthage, Mo.) with tidal breathing for 5 min. This procedure was repeated a maximum of three times until enough sputum was obtained. The sputum samples were homogenized and mixed vigorously using a vortex mixer in 0.02% v/v dithiothreitol (DTT) solution. The samples were re-suspended in PBS (40 mL) followed by centrifugation at 1500 rpm at 4° C. for 10 min to obtain sputum cell pellets. The pellets were washed with PBS (40 mL). The sputum cells were then re-suspended in 4 mL macrophage serum-free medium (macrophage-SFM, Life technologies, containing 20 U/mL penicillin, 0.02 mg/mL streptomycin and 5 μg/mL amphotericin B) and seeded on high bound 96-well plate, followed by incubation for 1 h at 37° C. and at 5% CO2 to allow the macrophages to attach to the bottom of the plate. The cells on the plate were washed with fresh macrophage-SFM (200 μL/well) to remove neutrophils and other contaminated cells. The adherent cells (mainly sputum macrophages) on the plate were used for further analysis. Sputum inductions were conducted in Quintiles Drug Research Unit at Guys Hospital and ethics approval and written informed consent was obtained by Quintiles.
Where appropriate, 1 μL of a solution containing either the test compound or reference article at the stated concentrations (either 0.1 μg/mL, 0.01 μg/mL, or 0.001 μg/mL) or alternatively 1 μL of DMSO as the vehicle control was added to each well (200 μL in media) and the cells were incubated for 2 h. The cells were stimulated with LPS solution (50 μL, final concentration: 1 μg/mL) and incubated for 18 h at 37° C. and 5% CO2. The supernatant was then collected and kept at −80° C. Suitable luminex kits were used to measure the selected analytes. After thawing the supernatant, the magnetic antibody beads were multiplexed and incubated in a 96-well plate with standard, background solution or the appropriate volume of sample overnight with shaking at 4° C. After washing twice with 200 μL of wash buffer provided by the kit per well using a magnetic plate washer, the beads were incubated for 1 h at RT with the biotin conjugated antibody solution provided by the kit with shaking. Streptavidin solution was added for 30 min with shaking at RT. After washing with 200 μL wash buffer per well, the beads were resuspended in sheath fluid (150 μL) and analyzed immediately. The level of each analyte in the supernatant was calculated using Xcel Fit software with a 4 or 5-parameter equation using each standard curve. The inhibitions of each cytokine production were calculated at each concentration by comparison with vehicle control.

The subject of data set [6] is d-U937 cells. Put plainly: Cell viability: MTT assay in differentiated U937 cells. The data set is classed as cell-based, human. As to conditions: 10 μg/mL. On the procedure: Differentiated U937 cells were pre-incubated with each test compound (final concentration 10 μg/mL in 200 μL media indicated below) under two protocols: the first for 4 h in 5% FCS RPMI1640 media and the second in 10% FCS RPMI1640 media for 24 h. The supernatant was replaced with new media (200 μL) and MTT stock solution (10 μL, 5 mg/mL) was added to each well. After incubation for 1 h the media were removed, DMSO (200 μL) was added to each well and the plates were shaken lightly for 1 h prior to reading the absorbance at 550 nm. The percentage loss of cell viability was calculated for each well relative to vehicle (0.5% DMSO) treatment. Consequently an apparent increase in cell viability for drug treatment relative to vehicle is tabulated as a negative percentage.
On the technique in general: Tetrazolium dyes change colour on reduction, which living cells bring about.

T1 sequence (Q16539 whole entry, canonical isoform): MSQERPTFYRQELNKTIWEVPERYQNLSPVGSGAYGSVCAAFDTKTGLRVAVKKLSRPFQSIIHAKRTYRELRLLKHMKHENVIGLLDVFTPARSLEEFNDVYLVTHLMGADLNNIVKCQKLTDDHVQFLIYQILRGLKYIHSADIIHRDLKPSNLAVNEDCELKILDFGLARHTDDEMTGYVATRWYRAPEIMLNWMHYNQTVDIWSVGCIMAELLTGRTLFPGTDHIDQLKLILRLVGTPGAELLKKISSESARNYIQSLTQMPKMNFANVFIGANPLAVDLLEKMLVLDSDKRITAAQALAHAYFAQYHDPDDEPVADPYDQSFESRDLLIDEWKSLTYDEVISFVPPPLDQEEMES

Take `COCc1cccc(-n2nc(C(C)(C)C)cc2NC(=O)Nc2ccc(OCc3ccnc(Nc4cnc(C(=O)N5CCN(C)CC5)cn4)c3)c3ccccc23)c1` [Example 269, 1-(3-(tert-butyl)-1-(3-(methoxymethyl)phenyl)-1H-pyrazol-5-yl)-3-(4-((2-((5-(4-methylpiperazine-1-carbonyl)pyrazin-2-yl)amino)pyridin-4-yl)methoxy)naphthalen-1-yl)urea]: the pIC50 in data set [1] was greater than 9.40; in data set [2] it was 6.86.
For `COCc1cccc(-n2nc(C(C)(C)C)cc2NC(=O)Nc2ccc(OCc3ccnc(Nc4cnc(C(=O)NCCN5CCOCC5)cn4)c3)c3ccccc23)c1` [Example 270, 5-((4-(((4-(3-(3-(tert-butyl)-1-(3-(methoxymethyl)phenyl)-1H-pyrazol-5-yl)ureido)naphthalen-1-yl)oxy)methyl)pyridin-2-yl)amino)-N-(2-morpholinoethyl) pyrazine-2-carboxamide] the same measures were 8.35 and 7.18.
With `CCC(=O)O[C@]1(C(=O)SCF)[C@H](C)C[C@H]2[C@@H]3C[C@H](F)C4=CC(=O)C=C[C@]4(C)[C@@]3(F)[C@@H](O)C[C@@]21C` [Fluticasone propionate, fluticasone propionate, reference compound], in data set [3], the “neutrophil or macrophage accumulation into airways (cigarette smoke model)” value is “did not inhibit”. For the same compound, the “inhibition of LPS-induced neutrophil accumulation” value in data set [4] is on record as greater than 80%. Besides, the inhibition at 0.1 µg/mL in data set [5] was determined as 42%.
Take `COCC(=O)Nc1cc(Oc2ccc(NC(=O)Nc3cc(C(C)(C)C)nn3-c3ccc(C)cc3)c3ccccc23)ccn1` [Reference Compound, N-(4-(4-(3-(3-tert-butyl-1-p-tolyl-1H-pyrazol-5-yl)ureido)naphthalen-1-yloxy)pyridin-2-yl)-2-methoxyacetamide, reference compound]: the “MTT Assay Cell viability at time point indicated in d-U937 Cells, 4 h” value in data set [6] (4 h) was “− (−ve and +ve indicate the value is below and above, respectively, the no significant effect threshold defined as 30% inhibition at 10 μg/mL at the time point indicated)”. Moreover, the “MTT Assay Cell viability at time point indicated in d-U937 Cells, 24 h” value in data set [6] (24 h) is “+ (−ve and +ve indicate the value is below and above, respectively, the no significant effect threshold defined as 30% inhibition at 10 μg/mL at the time point indicated)”.

What is called inhibition is the share of the control response that was lost under treatment.
